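48-hour exposure; five concentrations; linearly interpolated endpoints. Here, GI50 denotes the concentration required for 50% inhibition of growth. The concentration for full growth arrest is given as TGI.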
Experiments:
Assay in all cases: NCI-60 cell line screen, 48 h
A549 NSCLC = test system: A549 NSCLC
CCRF-CEM leukemia = test system: CCRF-CEM leukemia
DU-145 prostate = test system: DU-145 prostate
HCT-116 colon = test system: HCT-116 colon
OVCAR-4 ovarian = test system: OVCAR-4 ovarian
OVCAR-5 ovarian = test system: OVCAR-5 ovarian
SK-MEL-28 melanoma = test system: SK-MEL-28 melanoma
SK-OV-3 ovarian = test system: SK-OV-3 ovarian
SW-620 colon = test system: SW-620 colon
RPMI-8226 leukemia = test system: RPMI-8226 leukemia

Row | SMILES | TGI (A549 NSCLC) | TGI (CCRF-CEM leukemia) | TGI (DU-145 prostate) | TGI (HCT-116 colon) | TGI (OVCAR-4 ovarian) | TGI (OVCAR-5 ovarian) | TGI (SK-MEL-28 melanoma) | TGI (SK-OV-3 ovarian) | TGI (SW-620 colon) | TGI (RPMI-8226 leukemia) | GI50 (DU-145 prostate) | GI50 (OVCAR-4 ovarian) | GI50 (SK-OV-3 ovarian) | GI50 (A549 NSCLC) | GI50 (CCRF-CEM leukemia) | GI50 (HCT-116 colon) | GI50 (OVCAR-5 ovarian) | GI50 (RPMI-8226 leukemia) | GI50 (SK-MEL-28 melanoma) | GI50 (SW-620 colon)
1 | COC(c1ccsc1)C(C#N)(C#N)N=Cc1ccsc1 (configuration not stated) | > 100 µM | 39 µM | 28.5 µM | 25.4 µM | 88 µM | 46.6 µM | 33.1 µM | 59.1 µM | 28.4 µM |  |  |  |  |  |  |  |  |  |  | 
2 | CSc1nc2ccccc2c(=O)n1/N=C1\C(=O)N(CN2CCOCC2)c2ccc(Cl)cc21 | > 100 µM | > 100 µM | 63.6 µM | > 100 µM | > 100 µM | > 100 µM | > 100 µM | > 100 µM | > 100 µM |  |  |  |  |  |  |  |  |  |  | 
3 | CCOC(=O)c1c(SC(=O)c2cc(OC)c(OC)c(OC)c2)n(-c2ccccc2)c(=S)n(-c2ccccc2)c1=O | > 100 µM | > 100 µM | > 100 µM | > 100 µM | > 100 µM | > 100 µM | > 100 µM | > 100 µM | > 100 µM |  |  |  |  |  |  |  |  |  |  | 
4 | CN(C)CCCn1c(Cc2ccccc2)nc2cc(C(F)(F)F)ccc21 | 31.8 µM | 40.3 µM | > 100 µM | 33.2 µM | > 100 µM | > 100 µM | 37.6 µM | 63.2 µM | 75.2 µM |  |  |  |  |  |  |  |  |  |  | 
5 | COC(=O)c1c(OC(C)=O)ccc2c1c1c(OC(C)=O)c3ccccc3c(OC(C)=O)c1n2Cc1cc(OC)cc(OC)c1 | > 100 µM | > 100 µM | > 100 µM | 78.3 µM | > 100 µM | > 100 µM | > 100 µM | 57.8 µM |  | 20.8 µM |  |  |  |  |  |  |  |  |  | 
6 | COC(=O)C1=C(C)N2CCCOC2(C)C(C(=O)OC)C1c1cccc(Cl)c1 (configuration not stated) | > 100 µM | > 100 µM |  | > 100 µM | > 100 µM |  | > 100 µM |  | > 100 µM | 52.1 µM |  |  |  |  |  |  |  |  |  | 
7 | CCSc1ncnc2c(C3OC(CO)C(O)C3O)nsc12 (configuration not stated) | > 100 µM | > 100 µM | > 100 µM | > 100 µM | > 100 µM | > 100 µM | > 100 µM | > 100 µM | > 100 µM |  |  |  |  |  |  |  |  |  |  | 
8 | C[C@]12CC[C@H]3[C@@H](CCC4=CC(=O)C=C[C@@]43O)[C@@H]1CCC2=O | > 100 µM | > 100 µM | > 100 µM | > 100 µM |  | > 100 µM | > 100 µM |  | > 100 µM | > 100 µM |  |  |  |  |  |  |  |  |  | 
9 | Cc1cc2c(cc1-c1cc3c(cc1C)C(C(C)C)=C(O)C(=O)/C3=C\Nc1nc(-c3ccccc3)cs1)/C(=C/Nc1nc(-c3ccccc3)cs1)C(=O)C(O)=C2C(C)C | 57.2 µM | 64.4 µM | 55 µM | > 100 µM | 86.7 µM |  | 30.4 µM | 95.2 µM | 29 µM | > 100 µM |  |  |  |  |  |  |  |  |  | 
10 | O=S(=O)(c1cc(Cl)ccc1Cl)N1CCN(S(=O)(=O)c2cc(Cl)ccc2Cl)CC1 | > 100 µM |  | 29.6 µM | > 100 µM |  | 30 µM | > 100 µM |  | > 100 µM |  |  |  |  |  |  |  |  |  |  | 
11 | Cc1c(CNc2ccc(Cl)c(C(=O)NC(CC(=O)O)C(=O)O)c2)ccc2nc(N)nc(N)c12 (configuration not stated) | > 1000 µM | > 1000 µM | > 1000 µM | > 1000 µM | > 1000 µM |  |  | > 1000 µM | > 1000 µM |  | 0.594 µM | 265 µM | 800 µM |  |  |  |  |  |  | 
12 | O=C1COC(c2ccccc2O)=NN1CCCN1CCCC1 | > 100 µM |  | > 100 µM | > 100 µM | > 100 µM | > 100 µM | > 100 µM | > 100 µM | > 100 µM | > 100 µM |  |  |  |  |  |  |  |  |  | 
13 | CN(C(=O)C12C3C4(C(=O)O)C1(C(=O)N(C)C(C)(C)C)C1C2(C(=O)O)C3(C(=O)N(C)C(C)(C)C)C14C(=O)N(C)C(C)(C)C)C(C)(C)C (configuration not stated) | > 100 µM | > 100 µM | > 100 µM | > 100 µM | > 100 µM | > 100 µM | > 100 µM |  | > 100 µM |  |  |  |  |  |  |  |  |  |  | 
14 | CCNC(=S)N/N=C/c1cc(OC)ccc1O | > 100 µM | > 100 µM | > 100 µM | > 100 µM | > 100 µM | > 100 µM | > 100 µM | > 100 µM | > 100 µM |  |  |  |  |  |  |  |  |  |  | 
15 | CCSSCS(C)(=O)=O | > 100 µM | > 100 µM | 50.5 µM | > 100 µM | 40 µM | > 100 µM | > 100 µM | > 100 µM | > 100 µM |  |  |  |  |  |  |  |  |  |  | 
16 | CC1CN=C(Nc2cccc(C(F)(F)F)c2)S1 (configuration not stated) |  | > 100 µM | > 100 µM | > 100 µM |  | > 100 µM | > 100 µM | > 100 µM |  | > 100 µM |  |  |  |  |  |  |  |  |  | 
17 | CC/C(Cl)=N\OC(=O)Nc1ccc(OC)cc1 | 32.6 µM | 4.97 µM | 31.3 µM | 12 µM | 30.3 µM | 11.3 µM | 15.1 µM | 31.7 µM |  | 5.59 µM |  |  |  |  |  |  |  |  |  | 
18 | CCN(CC)CCCCCCCCNc1c2ccc(Cl)cc2nc2ccc(OC)cc12 | 3.62 µM | 6.32 µM | 3.18 µM | 3.14 µM | 2.71 µM | 3.99 µM | 3.63 µM |  | 2.67 µM | 3.34 µM | 1.55 µM | 1.14 µM |  | 1.56 µM | 0.634 µM | 1.36 µM | 1.64 µM | 0.675 µM | 1.95 µM | 1.02 µM
19 | COc1cc(C2c3cc4c(cc3C(O)C3CCC(=O)N23)OCO4)cc(OC)c1OC (configuration not stated) | > 100 µM | > 100 µM | > 100 µM | > 100 µM |  | > 100 µM | > 100 µM | > 100 µM | > 100 µM | > 100 µM |  |  |  |  |  |  |  |  |  | 
20 | CC1(C)CCC[C@]2(C)[C@@H]1CC[C@@]13O[C@@H]1C1=C(CO)C(=O)O[C@]14O[C@@H]4[C@@H]23 | 23.5 µM |  | 33.8 µM | 26.6 µM | 30 µM | 31.8 µM | 31.4 µM | 31.7 µM | 29.5 µM | > 100 µM |  |  |  |  |  |  |  |  |  | 
21 | CC(=O)Nc1ccc(S(=O)(=O)Nc2nnc(S(N)(=O)=O)s2)cc1 | > 100 µM |  | > 100 µM | > 100 µM | > 100 µM | > 100 µM |  | > 100 µM | > 100 µM | > 100 µM |  |  |  |  |  |  |  |  |  | 
22 | C=Nc1ccc([N+](=O)[O-])cc1 | > 100 µM | > 100 µM |  | > 100 µM | > 100 µM | > 100 µM | > 100 µM | > 100 µM | > 100 µM | > 31.6 µM |  |  |  |  |  |  |  |  |  | 
23 | C=CCOc1ccc(C2c3c([nH][nH]c3=O)CC(O)(OCC)C2C(=O)OCC)cc1OC (configuration not stated) | > 100 µM | > 100 µM | > 100 µM | > 100 µM | > 100 µM | > 100 µM | > 100 µM |  | > 100 µM | > 100 µM |  |  |  |  |  |  |  |  |  | 
